Measurements reported in US20220288231A1, “METHODS AND COMPOSITIONS FOR REDUCING GENE OR NUCLEIC ACID THERAPY-RELATED IMMUNE RESPONSES” (Generation Bio Co., priority 2019, published 2022).
Entries after “also recorded” stand apart in the source; their conditions may differ. Counter-ions that a name gives are not always drawn.

How the values were obtained:
[1] = tested on: IRF-inducible luciferase reporter in RAW-ISG cells; assay: IFN reporter assay in RAW-ISG cells; assay type: cell-based, murine; settings: for inhibitory effects on murine ISG system / induction of IRF: 0.1 μM, 1.0 μM and 10 μM, ceDNA
Protocol: Finally, IFN reporter assays were conducted in RAW-ISG cells. RAW-ISG cells are generated from the murine macrophage cell line by stable integration of an interferon regulatory factor (IRF)-inducible luciferase reporter construct. […] Another potent TKI compound selected for this assay was BMS-986165 which is a known antagonist of TYK2.

[2] = tested on: THP1-ISG cells; assay: THP1-ISG cell viability assay (ATP activity and LDH release); settings: 10 μM, 1.0 μM and 0.1 μM; 24 hours
[3] = In vivo tolerability and body weight with TKI and ceDNA; parameters: species or system mice
Protocol: The immunosuppressant selected for initial in vivo cytokine/chemokine panel assays were afatinib, brigatinib, dacomitinib, dasatinib, saracatinib, fostamatinib, cerdulatinib, ruxolitinib, and cobimetinib. […] The high and low dose concentrations immunosuppressants are as follows: afatinib (H: 200 mg/kg/day; L: 25 mg/kg/day), brigatinib (H: 50 mg/kg/day; L: 10 mg/kg/day), dacomitinib (H: 30 mg/kg/day; L: 10 mg/kg/day), dasatinib (H: 30 mg/kg/day; L: 10 mg/kg/day), saracatinib (H: 50 mg/kg/day; L: 10 mg/kg/day), fostamatinib (H: 500 mg/kg/day; L: 100 mg/kg/day), cerdulatinib (H: 30 mg/kg/day; L: 5 mg/kg/day), ruxolitinib (H: 300 mg/kg/day; L: 60 mg/kg/day) and cobimetinib (H: 10 mg/kg/day; L: 3 mg/kg/day). Formulations were mixed by pipetting prior to administration to distribute particulates of oral gavage suspension. TKI or vehicle for Groups 3-24 were dosed on Days -2, -1, 0 and 1 by oral gavage at 10 mL/kg. TKI for Group 25 were dosed on Days -2, -1, 0 and 1 by oral gavage at 20 mL/kg. TKI for Group 26 was dosed on Days -2, -1, 0 and 1 by intraperitoneal (IP) administration at 20 mL/kg. […] Otherwise, TKIs were administered at approximately the same time each day ([…] dosed at 0.2 mg/kg on Day 0 for all experimental groups by intravenous administration via lateral tail vein. […] Polycytidylic acid potassium salt (PolyC) and […] […] Body weights for all animal were recorded.

[4] = tested on: serum proinflammatory cytokines and chemokines in response to ceDNA; assay: In vivo cytokine/chemokine panel after ceDNA (Construct A) dosing; parameters: species or system mice; settings: for serum IP-10 level: repeat experiment; for cytokines expression after ceDNA dosing: LNP: Construct A at 0.2 mg/Kg
Protocol: The immunosuppressant selected for initial in vivo cytokine/chemokine panel assays were afatinib, brigatinib, dacomitinib, dasatinib, saracatinib, fostamatinib, cerdulatinib, ruxolitinib, and cobimetinib. […] The high and low dose concentrations immunosuppressants are as follows: afatinib (H: 200 mg/kg/day; L: 25 mg/kg/day), brigatinib (H: 50 mg/kg/day; L: 10 mg/kg/day), dacomitinib (H: 30 mg/kg/day; L: 10 mg/kg/day), dasatinib (H: 30 mg/kg/day; L: 10 mg/kg/day), saracatinib (H: 50 mg/kg/day; L: 10 mg/kg/day), fostamatinib (H: 500 mg/kg/day; L: 100 mg/kg/day), cerdulatinib (H: 30 mg/kg/day; L: 5 mg/kg/day), ruxolitinib (H: 300 mg/kg/day; L: 60 mg/kg/day) and cobimetinib (H: 10 mg/kg/day; L: 3 mg/kg/day). Formulations were mixed by pipetting prior to administration to distribute particulates of oral gavage suspension. TKI or vehicle for Groups 3-24 were dosed on Days -2, -1, 0 and 1 by oral gavage at 10 mL/kg. TKI for Group 25 were dosed on Days -2, -1, 0 and 1 by oral gavage at 20 mL/kg. TKI for Group 26 was dosed on Days -2, -1, 0 and 1 by intraperitoneal (IP) administration at 20 mL/kg. […] Otherwise, TKIs were administered at approximately the same time each day ([…] dosed at 0.2 mg/kg on Day 0 for all experimental groups by intravenous administration via lateral tail vein. Animals were monitored continuously while under anesthesia, during recovery and until mobile. […] Polycytidylic acid potassium salt (PolyC) and […] (Construct A) were used as controls. […] Body weights for all animal were recorded.

[5] = tested on: immune response to ceDNA (Construct A: hAAT-Luciferase); assay: ceDNA dose escalation study with TKI; assay type: in vivo; settings: 2 mg/kg ceDNA formulated in LNP; ruxolitinib 300 mg/kg
Protocol: An in vivo study with dose escalation of ceDNA was conducted to evaluate the effect of ceDNA at a high dose in the presence of the TKI (ruxolitinib at a high dose of 300 mg/kg and fostamatinib at a high dose of 500 mg/kg). In this study, four experimental groups were dosed with increasing doses of 0.2 mg/kg, 0.5 mg/kg, 1 mg/kg, or 2 mg/kg of ceDNA (Construct A: hAAT-Luciferase) formulated in LNPs.

[6] = tested on: luciferase expression of ceDNA (Construct A); assay: In-life imaging (IVIS) of ceDNA luciferase expression; assay type: in vivo, mice; settings: day 6; compared among TKI groups
Protocol: Expression levels of ceDNA as detected by luciferase (IVIS for luciferase) was measured at day 6, 14, 21, 28, and 35 in all groups (FIG. 8). Polycytidylic acid potassium salt (PolyC) and […] ceDNA (Construct A) were used as controls. Both polyC and Construct A were formulated in LNP and used as controls for in groups in which no ceDNA was dosed to evaluate the effect of LNPs. Body weights for all animal were recorded.

[7] = tested on: immune response to ceDNA; assay type: in vivo, mice; settings: −0.5 h and 5 h regimen compared to −48 hr, −24 h, −1.5 h and 24 h regimen; 300 mg/kg
Text: FIG. 14 depicts two different dosing time arrangements of TKI treatment. […]. […]

[8] = 0.2 mg/kg ceDNA, blood 6 hours post dose
[9] = high dose of TKI with Construct A:LNP vehicle

Which results are given for [2H]C([2H])([2H])NC(=O)c1nnc(NC(=O)C2CC2)cc1Nc1cccc(-c2ncn(C)n2)c1OC [BMS-986165, BMS986165 Tyk2-IN-4]?
inhibitory effects, ranking among more than 30 compounds tested [1]: most significant inhibitory effects; inhibitory effects on murine ISG system / induction of IRF [1]: significant inhibitory effects

Which “toxicity in vitro (ATP activity)” value [2] does the source give for Cl.Cn1cc(-c2nc(N[C@@H]3CCCC[C@@H]3N)c(F)c3c2C(=O)NC3)cn1 [TAK-659] here?
Its value is “mostly non-toxic”.

With CN(C)C/C=C/C(=O)Nc1cc2c(Nc3ccc(F)c(Cl)c3)ncnc2cc1O[C@H]1CCOC1 [afatinib, Afatinib/ Afatinib Dimaleate] as the compound, how does the body loss ([3]; with ceDNA, particularly at a high dose) read?
Its body loss is 7-8%.

For c1cn2cc(-c3ccc4cn[nH]c4c3)nc(Nc3ccc(N4CCOCC4)cc3)c2n1 [entoplestinib, Entosplestinib], which “toxicity in vitro (ATP activity)” value [2] is on record?
Its value is “mostly non-toxic”.

With COc1cc(Nc2ncc(F)c(Nc3ccc4c(n3)N(COP(=O)(O)O)C(=O)C(C)(C)O4)n2)cc(OC)c1OC [fostamatinib, Fostamatinib/ Fostamatinib disodium] as the compound, how does the “inhibitory effects, ranking among more than 30 compounds tested” value [1] read?
The value was “most significant inhibitory effects”.

And the “inhibitory effects on murine ISG system / induction of IRF” value [1]?
Its value is “significant inhibitory effects”.

What about the “suppressing cytokines and chemokine levels” value ([4]; 0.2 mg/kg ceDNA) of the same compound?
The value was “stood out”.

And the “type I and type II IFNs responses” value ([4]; 0.2 mg/kg ceDNA)?
The value was “effectively attenuated”.

And the “serum interferon-α (IFN-α) level” value [4, 8]?
Its value is “successfully exerted immunosuppressive effects”.

And the “serum interferon-γ (IFN-γ) level” value [4, 8]?
The value was “successfully exerted immunosuppressive effects”.

What about the “serum interleukin-6 (IL-6) level” value [4, 8] of the same compound?
The value was “successfully exerted immunosuppressive effects”.

What about the “serum interleukin-18 (IL-18) level” value [4, 8] of the same compound?
Its value is “successfully exerted immunosuppressive effects”.

And the “serum tumor necrosis factor-α (TNF-α) level” value [4, 8]?
The value was “successfully exerted immunosuppressive effects”.

What about the “serum IP-10 level” value ([4]; 0.2 mg/kg ceDNA) of the same compound?
Its value is “successfully exerted immunosuppressive effects”.

What about the “cytokines expression after ceDNA dosing” value [4] of the same compound?
Its value is “drastically reduce”.

With Cc1ccc(NC(=O)c2ccc(CN3CCN(C)CC3)cc2)cc1Nc1nccc(-c2cccnc2)n1 [imatinib, Imatinib/ Imatinib mesylate] as the compound, how does the “toxicity in vitro (ATP activity)” value [2] read?
The value was “mostly non-toxic”.

What does the source list for N#CC[C@H](C1CCCC1)n1cc(-c2ncnc3[nH]ccc23)cn1 [ruxolitinib, Ruxolitinib/ Ruxolitinib phosphate/ S-ruxolitinib]?
inhibitory effects, ranking among more than 30 compounds tested [1]: most significant inhibitory effects; inhibitory effects on murine ISG system / induction of IRF [1]: significant inhibitory effects; serum MCP-1 level ([4]; 0.2 mg/kg ceDNA): significant reduction; serum MIP-1α (CCL3) level ([4]; 0.2 mg/kg ceDNA): significant reduction; serum MIP-1β (CCL4) level ([4]; 0.2 mg/kg ceDNA): significant reduction; serum Rantes (CCL5) level ([4]; 0.2 mg/kg ceDNA): significant reduction; suppressing cytokines and chemokine levels ([4]; 0.2 mg/kg ceDNA): stood out; type I and type II IFNs responses ([4]; 0.2 mg/kg ceDNA): effectively attenuated; serum interferon-α (IFN-α) level [4, 8]: significant reductions; also recorded: successfully exerted immunosuppressive effects; serum interferon-γ (IFN-γ) level [4, 8]: significant reductions; also recorded: successfully exerted immunosuppressive effects; serum interleukin-6 (IL-6) level [4, 8]: significant reductions; also recorded: successfully exerted immunosuppressive effects; serum interleukin-18 (IL-18) level [4, 8]: significant reductions; also recorded: successfully exerted immunosuppressive effects; serum level [4, 8]: significant reductions; serum tumor necrosis factor-α (TNF-α) level [4, 8]: significant reductions; also recorded: successfully exerted immunosuppressive effects; serum IP-10 level ([4]; 0.2 mg/kg ceDNA): successfully exerted immunosuppressive effects; cytokines expression after ceDNA dosing [4]: drastically reduce; serum IFN-α level [4, 9]: no detectable; serum IFN-γ level [4, 9]: no detectable; serum IL-6 level [4, 9]: no detectable; body weight change ([3]; TKI with 0.2 mg/kg ceDNA): a certain level of weight gains; tolerability [5]: well tolerated; ceDNA transgene expression levels [6]: highest level; immunosuppression [7]: improved immunosuppression

With CNC(=O)c1cc(Oc2ccc(NC(=O)Nc3ccc(Cl)c(C(F)(F)F)c3)cc2)ccn1 [sorafinib, Sorafenib] as the compound, how does the “toxicity in vitro (ATP activity)” value [2] read?
Its value is “mostly non-toxic”.

For CCN(CC)CCNC(=O)c1c(C)[nH]c(/C=C2\C(=O)Nc3ccc(F)cc32)c1C [sunitinib, Sunitinib], which “toxicity in vitro (ATP activity)” value [2] is on record?
Its value is “mostly non-toxic”.
